Measured values reported in US20150152080A1, “BENZOTHIOPHENE SULFONAMIDES DERIVATIVES AS CHEMOKINE RECEPTOR MODULATORS” (Allergan, Inc., priority 2013, published 2015).

Target: T1, CCR2 (Homo sapiens, UniProt P41597)
T1 construct: expressed in transfected cells; geneticin and hygromycin selection
Assay: Calcium activity assay on FLIPR Tetra in HEK-Gqi5 cells stably expressing CCR2
Type: cell-based
Settings: for Emax: read-out: CCR2 ANTAGONISM Rel. Eff. (%)
Method: HEK-Gqi5 cells stably expressing CCR2 were cultured in DMEM high glucose, 10% FBS, 1% PSA, 400 μg/ml geneticin and 50 μg/ml hygromycin. Appropriate positive control chemokines (MCP-1, MIP1A or RANTES) was used as the positive control agonist for screening compound-induced calcium activity assayed on the FLIPR^Tetra. The drug plates were prepared in 384-well microplates using the EP3 and the MultiPROBE robotic liquid handling systems. Compounds were synthesized and tested for CCR2 activity.

T1 sequence (P41597 whole entry, species assumed): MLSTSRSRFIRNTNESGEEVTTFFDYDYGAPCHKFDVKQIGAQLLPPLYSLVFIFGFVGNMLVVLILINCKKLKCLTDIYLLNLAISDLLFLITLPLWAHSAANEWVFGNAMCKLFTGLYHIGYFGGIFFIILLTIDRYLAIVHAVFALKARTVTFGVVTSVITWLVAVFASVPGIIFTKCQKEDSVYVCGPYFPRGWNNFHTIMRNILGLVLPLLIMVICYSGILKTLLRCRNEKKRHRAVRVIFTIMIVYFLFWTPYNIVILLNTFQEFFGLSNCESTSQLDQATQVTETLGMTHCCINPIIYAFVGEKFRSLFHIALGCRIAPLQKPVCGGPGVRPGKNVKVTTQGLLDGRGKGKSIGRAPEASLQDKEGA

COC(=O)c1ccccc1CSc1ccc(Cl)cc1NS(=O)(=O)c1cc2ccccc2s1 [Compound 1]
IC50: 198 nM | Emax: 86%

O=C(O)c1ccccc1CSc1ccc(Cl)cc1NS(=O)(=O)c1cc2ccccc2s1 [Compound 2, 2-[({2-[(1-Benzothiophen-2-ylsulfonyl)amino]-4-chlorophenyl}sulfanyl)methyl]benzoic acid]
IC50: 4 nM | Emax: 100%

Cc1ccc(SCc2ccccc2C(=O)O)c(NS(=O)(=O)c2cc3ccccc3s2)c1 [Compound 4, 2-[({2-[(1-Benzothiophen-2-ylsulfonyl)amino]-4-methylphenyl}sulfanyl)methyl]benzoic acid]
Emax: 99%

Nc1cccc(CS(=O)(=O)c2ccc(Cl)cc2NS(=O)(=O)c2cc3ccccc3s2)c1 [Compound 7, N-{2-[(3-Aminobenzyl)sulfonyl]-5-chlorophenyl}-1-benzothiophene-2-sulfonamide]
IC50: 77 nM | Emax: 98%

Cc1ccc(NS(=O)(=O)c2cc3ccccc3s2)c(SCc2ccccc2C(=O)O)c1 [Compound 9, 2-[({2-[(1-Benzothiophen-2-ylsulfonyl)amino]-5-methylphenyl}sulfanyl)methyl]benzoic acid]
IC50: 114 nM | Emax: 88%

O=S(=O)(Nc1cccnc1SCc1ccccc1)c1cc2ccccc2s1 [Compound 10, N-[2-(Benzylsulfanyl)pyridin-3-yl]-1-benzothiophene-2-sulfonamide]
IC50: 2250 nM | Emax: 44%

O=S(=O)(Cc1ccccc1)c1ncccc1NS(=O)(=O)c1cc2ccccc2s1 [Compound 11, N-[2-(Benzylsulfonyl)pyridin-3-yl]-1-benzothiophene-2-sulfonamide]
IC50: 85 nM | Emax: 93%

O=S(=O)(Nc1cccnc1[S+]([O-])Cc1ccccc1)c1cc2ccccc2s1 (stereo not shown) [Compound 12, N-[2-(Benzylsulfinyl)pyridin-3-yl]-1-benzothiophene-2-sulfonamide]
IC50: 122 nM | Emax: 72%

COC(=O)c1ccccc1CSc1ccc(F)cc1NS(=O)(=O)c1cc2ccccc2s1 [Compound 13, methyl 2-[({2-[(1-benzothiophen-2-ylsulfonyl)amino]-4-fluorophenyl}sulfanyl)methyl]benzoate]
IC50: 268 nM | Emax: 68%

O=C(O)c1ccccc1CSc1ccc(F)cc1NS(=O)(=O)c1cc2ccccc2s1 [Compound 14, 2-[({2-[(1-benzothiophen-2-ylsulfonyl)amino]-4-fluorophenyl}sulfanyl)methyl]benzoic acid]
IC50: < 10 nM | Emax: 96%
